Measured values taken from the NIST ThermoML archive (doi:10.1016/j.jct.2016.03.030).
± gives the expanded uncertainty stated by the source.

Assay: molar heat capacity at constant pressure; xn = mol fraction of the nth substance listed
Details: 100 kPa, Liquid, Small sample (50 mg) DSC

CCCC[N+]1(C)CCOCC1.[Br-] [4-butyl-4-methylmorpholinium bromide] + O
molar heat capacity at constant pressure [J/K/mol]
Details | 298.15 K | 303.15 K | 308.15 K | 313.15 K | 318.15 K | 323.15 K | 328.15 K | 333.15 K | 338.15 K | 343.15 K
x1 = 0.0363 | 87.85 ± 8.9 | 87.9 ± 8.9 | 88.24 ± 8.9 | 88.5 ± 8.9 | 88.76 ± 9 | 89.02 ± 9 | 89.23 ± 9 | 89.41 ± 9 | 89.57 ± 9.1 | 89.8 ± 9.1
x1 = 0.0601 | 94.21 ± 9.5 | 94.49 ± 9.5 | 95.08 ± 9.6 | 95.61 ± 9.7 | 96.11 ± 9.7 | 96.14 ± 9.7 | 96.74 ± 9.8 | 97.08 ± 9.8 | 97.24 ± 9.8 | 97.27 ± 9.8
x1 = 0.1242 | 111.81 ± 11 | 112.44 ± 11 | 113.49 ± 11 | 114.39 ± 12 | 115.3 ± 12 | 116.21 ± 12 | 117.02 ± 12 | 117.79 ± 12 | 118.61 ± 12 | 119.34 ± 12
x1 = 0.2383 | 149.98 ± 15 | 150.75 ± 15 | 152.16 ± 15 | 153.36 ± 16 | 154.56 ± 16 | 155.82 ± 16 | 156.95 ± 16 | 158.08 ± 16 | 159.21 ± 16 | 160.26 ± 16
x1 = 0.2569 | 154.14 ± 16 | 155.11 ± 16 | 156.45 ± 16 | 157.64 ± 16 | 158.76 ± 16 | 160.03 ± 16 | 161.22 ± 16 | 162.27 ± 16 | 163.39 ± 16 | 164.51 ± 17
x1 = 0.3007 | 165.4 ± 17 | 166.24 ± 17 | 167.67 ± 17 | 168.93 ± 17 | 170.11 ± 17 | 171.54 ± 17 | 172.72 ± 17 | 173.82 ± 18 | 175 ± 18 | 176.09 ± 18

CCCCC[N+]1(C)CCOCC1.[Br-] [4-methyl-4-pentylmorpholinium bromide] + O
molar heat capacity at constant pressure [J/K/mol]
Details | 298.15 K | 303.15 K | 308.15 K | 313.15 K | 318.15 K | 323.15 K | 328.15 K | 333.15 K | 338.15 K | 343.15 K
x1 = 0.0316 | 94.11 ± 9.5 | 94.16 ± 9.5 | 94.44 ± 9.5 | 94.72 ± 9.6 | 94.98 ± 9.6 | 95.31 ± 9.6 | 95.54 ± 9.7 | 95.76 ± 9.7 | 95.94 ± 9.7 | 96.1 ± 9.7
x1 = 0.0695 | 105.99 ± 11 | 106.33 ± 11 | 106.88 ± 11 | 107.4 ± 11 | 107.91 ± 11 | 108.43 ± 11 | 108.87 ± 11 | 109.28 ± 11 | 109.73 ± 11 | 110.14 ± 11
x1 = 0.1522 | 133.02 ± 13 | 133.71 ± 14 | 134.95 ± 14 | 135.91 ± 14 | 136.93 ± 14 | 138.01 ± 14 | 138.86 ± 14 | 139.78 ± 14 | 140.69 ± 14 | 141.55 ± 14
x1 = 0.2054 | 153.72 ± 16 | 154.58 ± 16 | 156.03 ± 16 | 157.22 ± 16 | 158.41 ± 16 | 159.6 ± 16 | 160.73 ± 16 | 161.92 ± 16 | 163.04 ± 16 | 164.03 ± 17
x1 = 0.219 | 149.69 ± 15 | 150.59 ± 15 | 151.97 ± 15 | 153.29 ± 15 | 154.54 ± 16 | 155.79 ± 16 | 156.96 ± 16 | 158 ± 16 | 159.04 ± 16 | 160.08 ± 16
x1 = 0.2438 | 159.53 ± 16 | 160.5 ± 16 | 161.93 ± 16 | 163.21 ± 16 | 164.56 ± 17 | 165.91 ± 17 | 167.26 ± 17 | 168.39 ± 17 | 169.59 ± 17 | 170.72 ± 17
x1 = 0.2754 | 165.68 ± 17 | 166.67 ± 17 | 168.15 ± 17 | 169.64 ± 17 | 170.96 ± 17 | 172.28 ± 17 | 173.51 ± 17 | 174.92 ± 18 | 176.15 ± 18 | 177.39 ± 18

CCC[N+]1(C)CCOCC1.[Br-] [4-methyl-4-propylmorpholinium bromide] + O
molar heat capacity at constant pressure [J/K/mol]
Details | 298.15 K | 303.15 K | 308.15 K | 313.15 K | 318.15 K | 323.15 K | 328.15 K | 333.15 K | 338.15 K | 343.15 K
x1 = 0.0336 | 82.58 ± 8.3 | 82.9 ± 8.4 | 83.23 ± 8.4 | 83.53 ± 8.4 | 83.78 ± 8.5 | 84.05 ± 8.5 | 84.28 ± 8.5 | 84.5 ± 8.5 | 84.72 ± 8.6 | 84.95 ± 8.6
x1 = 0.0618 | 89.62 ± 9 | 89.92 ± 9.1 | 90.54 ± 9.1 | 91.03 ± 9.2 | 91.49 ± 9.2 | 92.05 ± 9.3 | 92.45 ± 9.3 | 92.91 ± 9.4 | 93.25 ± 9.4 | 93.65 ± 9.5
x1 = 0.1298 | 107.63 ± 11 | 108.21 ± 11 | 109.1 ± 11 | 110 ± 11 | 110.81 ± 11 | 111.61 ± 11 | 112.42 ± 11 | 113.09 ± 11 | 113.81 ± 12 | 114.43 ± 12
x1 = 0.2036 | 125.06 ± 13 | 125.72 ± 13 | 126.8 ± 13 | 127.7 ± 13 | 128.6 ± 13 | 129.5 ± 13 | 130.16 ± 13 | 130.58 ± 13 | 130.94 ± 13 | 131.12 ± 13
x1 = 0.2742 | 132.6 ± 13 | 133.19 ± 13 | 134.31 ± 14 | 135.28 ± 14 | 136.1 ± 14 | 137.14 ± 14 | 137.89 ± 14 | 138.56 ± 14 | 139.23 ± 14 | 140.05 ± 14
x1 = 0.3025 | 146.99 ± 15 | 147.64 ± 15 | 148.84 ± 15 | 149.81 ± 15 | 150.85 ± 15 | 151.81 ± 15 | 152.7 ± 15 | 153.5 ± 16 | 154.39 ± 16 | 155.03 ± 16
